Results as given in article PMC8699473, “An Easily Expandable Multi-Drug LC-MS Assay for the Simultaneous Quantification of 57 Oral Antitumor Drugs in Human Plasma” (Cancers, 2021).

Test: Long-term stability in spiked pooled human plasma

SMILES	Long-term stability, 1 month, -20°C Accuracy [%] (validation standard 2xLLOV)	Long-term stability, 1 month, -80°C Accuracy [%] (validation standard 2xLLOV)	Long-term stability, 2 month, -20°C Accuracy [%] (validation standard 2xLLOV)	Long-term stability, 2 month, -80°C Accuracy [%] (validation standard 2xLLOV)	Long-term stability, 3 month, -20°C Accuracy [%] (validation standard 2xLLOV)	Long-term stability, 3 month, -80°C Accuracy [%] (validation standard 2xLLOV)	Long-term stability, 6 weeks, 4°C, without daylight Accuracy [%] (validation standard 2xLLOV)	Long-term stability, 1 month, -20°C Accuracy [%] (validation standard LLOV)	Long-term stability, 1 month, -80°C Accuracy [%] (validation standard LLOV)	Long-term stability, 2 month, -20°C Accuracy [%] (validation standard LLOV)	Long-term stability, 2 month, -80°C Accuracy [%] (validation standard LLOV)	Long-term stability, 3 month, -20°C Accuracy [%] (validation standard LLOV)	Long-term stability, 3 month, -80°C Accuracy [%] (validation standard LLOV)	Long-term stability, 6 weeks, 4°C, without daylight Accuracy [%] (validation standard LLOV)	Long-term stability, 1 month, -20°C Accuracy [%] (validation standard MOV)	Long-term stability, 1 month, -80°C Accuracy [%] (validation standard MOV)	Long-term stability, 2 month, -20°C Accuracy [%] (validation standard MOV)	Long-term stability, 2 month, -80°C Accuracy [%] (validation standard MOV)	Long-term stability, 3 month, -20°C Accuracy [%] (validation standard MOV)	Long-term stability, 3 month, -80°C Accuracy [%] (validation standard MOV)	further results
NC(=O)c1cccc2cn(-c3ccc([C@@H]4CCCNC4)cc3)nc12 [Niraparib]	101.4	94.5	104.1	106.0	99.8	95.7	96.1	97.8	93.4	101.8	102.4	96.1	95.4	94.3	99.8	99.6	105.3	103.9	102.2	100.4	Long-term stability, 6 weeks, 4°C, without daylight Accuracy [%] (validation standard MOV): 104.5%; Long-term stability, 1 month, -20°C Accuracy [%] (validation standard ULOV): 100.8%; Long-term stability, 1 month, -80°C Accuracy [%] (validation standard ULOV): 98.5%; Long-term stability, 2 month, -20°C Accuracy [%] (validation standard ULOV): 103.3%; Long-term stability, 2 month, -80°C Accuracy [%] (validation standard ULOV): 104.1%; Long-term stability, 3 month, -20°C Accuracy [%] (validation standard ULOV): 100.4%; Long-term stability, 3 month, -80°C Accuracy [%] (validation standard ULOV): 101.8%; Long-term stability, 6 weeks, 4°C, without daylight Accuracy [%] (validation standard ULOV): 96.4%
COc1cc2c(Nc3ccc(Br)cc3F)ncnc2cc1OCC1CCN(C)CC1 [Vandetanib]	99.7	97.7	105.9	106.4	101.7	101.7	92.2	95.3	88.9	97.5	97.6	87.6	83.6	85.4	98.6	95.9	105.7	105.2	105.3	104.4	Long-term stability, 6 weeks, 4°C, without daylight Accuracy [%] (validation standard MOV): 100.6%; Long-term stability, 1 month, -20°C Accuracy [%] (validation standard ULOV): 93.1%; Long-term stability, 1 month, -80°C Accuracy [%] (validation standard ULOV): 88.0%; Long-term stability, 2 month, -20°C Accuracy [%] (validation standard ULOV): 98.6%; Long-term stability, 2 month, -80°C Accuracy [%] (validation standard ULOV): 98.6%; Long-term stability, 3 month, -20°C Accuracy [%] (validation standard ULOV): 97.4%; Long-term stability, 3 month, -80°C Accuracy [%] (validation standard ULOV): 98.8%; Long-term stability, 6 weeks, 4°C, without daylight Accuracy [%] (validation standard ULOV): 93.5%
CNCc1ccc(-c2[nH]c3cc(F)cc4c3c2CCNC4=O)cc1 [Rucaparib]	95.4	89.7	100.7	99.7	95.9	94.7	93.1	104.7	102.1	115.1	112.2	109.6	108.0	104.4	98.5	95.5	104.6	102.1	101.6	97.2	Long-term stability, 6 weeks, 4°C, without daylight Accuracy [%] (validation standard MOV): 103.5%; Long-term stability, 1 month, -20°C Accuracy [%] (validation standard ULOV): 99.8%; Long-term stability, 1 month, -80°C Accuracy [%] (validation standard ULOV): 94.8%; Long-term stability, 2 month, -20°C Accuracy [%] (validation standard ULOV): 104.3%; Long-term stability, 2 month, -80°C Accuracy [%] (validation standard ULOV): 102.7%; Long-term stability, 3 month, -20°C Accuracy [%] (validation standard ULOV): 100.6%; Long-term stability, 3 month, -80°C Accuracy [%] (validation standard ULOV): 98.3%; Long-term stability, 6 weeks, 4°C, without daylight Accuracy [%] (validation standard ULOV): 100.2%
Cc1cn(-c2cc(NC(=O)c3ccc(C)c(Nc4nccc(-c5cccnc5)n4)c3)cc(C(F)(F)F)c2)cn1 [Nilotinib]	95.1	89.2	96.9	99.7	91.6	92.2	103.4	91.9	89.8	93.3	97.4	90.5	93.1	102.0	95.6	91.9	99.1	98.0	96.9	93.1	Long-term stability, 6 weeks, 4°C, without daylight Accuracy [%] (validation standard MOV): 101.7%; Long-term stability, 1 month, -20°C Accuracy [%] (validation standard ULOV): 94.2%; Long-term stability, 1 month, -80°C Accuracy [%] (validation standard ULOV): 90.9%; Long-term stability, 2 month, -20°C Accuracy [%] (validation standard ULOV): 97.5%; Long-term stability, 2 month, -80°C Accuracy [%] (validation standard ULOV): 97.0%; Long-term stability, 3 month, -20°C Accuracy [%] (validation standard ULOV): 93.1%; Long-term stability, 3 month, -80°C Accuracy [%] (validation standard ULOV): 91.6%; Long-term stability, 6 weeks, 4°C, without daylight Accuracy [%] (validation standard ULOV): 98.0%
O=C(c1cc(Cc2n[nH]c(=O)c3ccccc23)ccc1F)N1CCN(C(=O)C2CC2)CC1 [Olaparib]	100.3	98.2	103.8	103.3	99.8	103.3	96.6	112.8	110.5	115.9	115.8	111.4	115.4	105.6	95.3	92.9	97.5	96.8	97.6	96.7	Long-term stability, 6 weeks, 4°C, without daylight Accuracy [%] (validation standard MOV): 107.5%; Long-term stability, 1 month, -20°C Accuracy [%] (validation standard ULOV): 99.1%; Long-term stability, 1 month, -80°C Accuracy [%] (validation standard ULOV): 98.1%; Long-term stability, 2 month, -20°C Accuracy [%] (validation standard ULOV): 102.1%; Long-term stability, 2 month, -80°C Accuracy [%] (validation standard ULOV): 101.1%; Long-term stability, 3 month, -20°C Accuracy [%] (validation standard ULOV): 98.9%; Long-term stability, 3 month, -80°C Accuracy [%] (validation standard ULOV): 100.7%; Long-term stability, 6 weeks, 4°C, without daylight Accuracy [%] (validation standard ULOV): 105.6%
Cc1c(C(=O)Nc2ccc(N3C[C@@H](C)O[C@@H](C)C3)nc2)cccc1-c1ccc(OC(F)(F)F)cc1 [Sonidegib]	106.2	108.9	111.0	107.0	96.1	104.6	91.2	109.9	108.6	105.8	104.4	103.1	109.9	89.3	104.9	108.0	114.5	119.3	95.1	99.2	Long-term stability, 6 weeks, 4°C, without daylight Accuracy [%] (validation standard MOV): 106.1%; Long-term stability, 1 month, -20°C Accuracy [%] (validation standard ULOV): 106.5%; Long-term stability, 1 month, -80°C Accuracy [%] (validation standard ULOV): 105.4%; Long-term stability, 2 month, -20°C Accuracy [%] (validation standard ULOV): 122.3%; Long-term stability, 2 month, -80°C Accuracy [%] (validation standard ULOV): 122.3%; Long-term stability, 3 month, -20°C Accuracy [%] (validation standard ULOV): 89.3%; Long-term stability, 3 month, -80°C Accuracy [%] (validation standard ULOV): 100.0%; Long-term stability, 6 weeks, 4°C, without daylight Accuracy [%] (validation standard ULOV): 100.7%
